Measurements published in ChEMBL document CHEMBL5257025, “Artemisinin-Derived Dimers: Potent Antimalarial and Anticancer Agents” (J Med Chem, 2016).

Columns and labels:
Plasmodium berghei = experiment: In vivo antimalarial activity against Plasmodium berghei infected mouse model assessed as survival time at 8 mg/kg, po in presence of Mefloquine hydrochloride
Plasmodium falciparum [1] = experiment: Antimalarial activity against Plasmodium falciparum D10 assessed as inhibition of parasitic growth; format: functional, organism-based
Plasmodium falciparum [2] = experiment: microbe, parasite or virus in culture; conditions: D6
Description: Antiplasmodial activity against Plasmodium falciparum D6 assessed as inhibition of parasitic growth

Plasmodium falciparum [3] = experiment: microbe, parasite or virus in culture; conditions: Dd2
Description: Antiplasmodial activity against Plasmodium falciparum Dd2 assessed as inhibition of parasitic growth

[4] = Cytotoxicity against CHO cells assessed as reduction in cell viability; format: toxicity, cell-based, Cricetulus griseus; conditions: chinese hamster, read-out: TC50 (the source's name)
Plasmodium falciparum [5] = experiment: microbe, parasite or virus in culture; conditions: W2
Description: Antiplasmodial activity against Plasmodium falciparum W2 assessed as inhibition of cell growth

[6] = Cytotoxicity against African green monkey Vero cells; format: toxicity, cell-based; conditions: chlorocebus sabaeus, read-out: TC50 (the source's name)
Plasmodium falciparum [7] = experiment: microbe, parasite or virus in culture; conditions: K1
Description: Antiplasmodial activity against Plasmodium falciparum K1 assessed as inhibition of parasitic growth

Plasmodium falciparum [8] = experiment: Antimalarial activity against Plasmodium falciparum 3D7 assessed as inhibition of malarial growth; format: functional, organism-based
TK-10 = experiment: Antiproliferative activity against human TK-10 cells assessed as reduction in cell viability incubated for 48 hrs by SRB assay; format: functional, cell-based; conditions: TK-10, 48 h
UACC-62 = experiment: Antiproliferative activity against human UACC-62 cells assessed as reduction in cell viability incubated for 48 hrs by SRB assay; format: functional, cell-based; conditions: UACC-62, 48 h
MCF7 = experiment: Antiproliferative activity against human MCF7 cells assessed as reduction in cell viability measured after 48 hrs by SRB assay; format: functional, cell-based; conditions: MCF7, 48 h
SK-OV-3 = experiment: Antiproliferative activity against human SK-OV-3 cells assessed as reduction in cell viability incubated for 48 hrs by MTT assay; format: functional, cell-based; conditions: SK-OV-3, 48 h
PC-3 = experiment: Antiproliferative activity against human PC-3 cells assessed as cell growth inhibition; format: functional, cell-based
LOX IMVI = experiment: Antiproliferative activity against human LOX IMVI cells assessed as cell growth inhibition; format: functional, cell-based
DU-145 = experiment: Antiproliferative activity against human DU-145 cells assessed as reduction in cell viability; format: functional, cell-based
HL-60 [9] = experiment: Antiproliferative activity against human HL-60 cells assessed as reduction in cell viability incubated for 48 hrs by MTT assay; format: functional, cell-based; conditions: HL-60, 48 h
K562 = experiment: Antiproliferative activity against human K562 cells assessed as reduction in cell viability by MTT assay; format: functional, cell-based
A498 = experiment: Antiproliferative activity against human A498 cells assessed as reduction in cell viability; format: functional, cell-based
OVCAR-3 = experiment: Antiproliferative activity against human OVCAR-3 cells assessed as reduction in cell viability; format: functional, cell-based
M14 = experiment: Antiproliferative activity against human M14 cells assessed as growth inhibition incubated for 72 hrs by luminescence assay; format: functional, cell-based; conditions: M14, 72 h
CAKI-1 = experiment: Antiproliferative activity against human CAKI-1 cells assessed as reduction in cell viability after 48 hrs by SRB assay; format: functional, cell-based; conditions: CAKI-1, 48 h
T47D = experiment: Antiproliferative activity against human T47D cells assessed as inhibition of cell growth; format: functional, cell-based
Plasmodium falciparum [10] = experiment: Antimalarial activity against Plasmodium falciparum K1 assessed as inhibition of malarial growth; format: functional, organism-based
BT-549 [11] = experiment: Antiproliferative activity against human BT-549 cells assessed as cell growth inhibition measured after 72 hrs by SRB assay; format: functional, cell-based; conditions: BT-549, 72 h
Plasmodium falciparum [12] = experiment: Antimalarial activity against Plasmodium falciparum NF54 assessed as reduction in cell growth; format: functional, organism-based
HL-60 [13] = experiment: Antiproliferative activity against human HL-60 cells assessed as cell growth inhibition measured after 48 hrs by SRB assay; format: functional, cell-based; conditions: HL-60, 48 h
CAKI-2 = experiment: Antiproliferative activity against human CAKI-2 cells assessed as inhibition of cell growth; format: functional, cell-based
Plasmodium falciparum [14] = experiment: Antimalarial activity against Plasmodium falciparum W2 assessed as reduction in malarial growth; format: functional, organism-based
KB = experiment: Antiproliferative activity against human KB cells assessed as reduction in cell viability incubated for 48 hrs by MTT assay; format: functional, cell-based
ADR5000 cell line = experiment: Antiproliferative activity against human CEM/ADR5000 cells assessed as reduction in cell viability incubated for 48 hrs by MTT assay; format: functional, cell-based; conditions: ADR5000, 48 h
Jurkat = experiment: Antiproliferative activity against human Jurkat cells assessed as reduction in cell viability incubated for 48 hrs by MTT assay; format: functional, cell-based
SK-VLB = experiment: Antiproliferative activity against human SK-VLB cells assessed as reduction in cell viability incubated for 48 hrs by MTT assay; format: functional, cell-based
A549 = experiment: cells; conditions: Homo sapiens, A549, 48 h
SK-MEL-2 = experiment: Antiproliferative activity against human SK-MEL-2 cells assessed as reduction in cell viability incubated for 48 hrs by MTT assay; format: functional, cell-based; conditions: SK-MEL-2, 48 h
BT-549 [15] = experiment: Antiproliferative activity against human BT-549 cells assessed as reduction in cell viability incubated for 48 hrs by MTT assay; format: functional, cell-based; conditions: BT-549, 48 h
XF498 = experiment: Antiproliferative activity against human XF498 cells assessed as reduction in cell viability incubated for 48 hrs by MTT assay; format: functional, cell-based; conditions: XF498, 48 h
[16] = Cytotoxicity against pig LLC-PK1 cells; format: toxicity, cell-based, Sus scrofa; conditions: read-out: TC50 (the source's name)
SK-MEL [17] = experiment: Antiproliferative activity against human SK-MEL cells assessed as reduction in cell viability incubated for 48 hrs by MTT assay; format: functional, cell-based
HCT-15 = experiment: cells; conditions: Homo sapiens, HCT-15, 48 h
Description: Antiproliferative activity against human HCT-15 cells assessed as reduction in cell viability incubated for 48 hrs by MTT assay

SK-MEL [18] = experiment: Antiproliferative activity against human SK-MEL cells assessed as reduction in cell growth inhibition; format: functional, cell-based

Compound: C[C@@H]1CC[C@H]2[C@@H](C)C(CC(CC3O[C@@H]4O[C@]5(C)CC[C@@H]6[C@@H](C)CC[C@H]([C@@H]3C)[C@]46OO5)C[Si](C)(C)C)O[C@H]3O[C@@]4(C)CC[C@@H]1[C@]32OO4 (stereo partly specified)
- survival time (Plasmodium berghei): > 57 days

Compound: C[C@H]1[C@@H](O)O[C@H]2O[C@@]3(C)CC[C@H]4[C@H](C)CC[C@@H]1[C@@]24OO3
- IC50 (Plasmodium falciparum [1]): 2.09 nM
- IC50 (Plasmodium falciparum [2]): 2.09 nM
- IC50 (Plasmodium falciparum [3]): 2.09 nM
- CC50 [4]: 148000 nM
- IC50 (Plasmodium falciparum [5]): 2.09 nM
- CC50 [6]: 1410 nM
- IC50 (Plasmodium falciparum [7]): 2.09 nM
- IC50 (Plasmodium falciparum [8]): 2.09 nM

Compound: COc1cc([C@@H]2c3cc4c(cc3[C@@H](O[C@@H]3O[C@@H]5CO[C@@H](C)O[C@H]5[C@H](O)[C@H]3O)[C@H]3COC(=O)[C@H]23)OCO4)cc(OC)c1O [ETOPOSIDE]
- IC50 (TK-10): 830 nM
- IC50 (UACC-62): 830 nM
- IC50 (MCF7): 830 nM

Compound: C[C@@H]1CC[C@H]2[C@@H](C)C(OCC(COC3O[C@H]4O[C@@]5(C)CC[C@H]6[C@H](C)CC[C@@H]([C@H]3C)[C@@]46OO5)=NO)O[C@H]3O[C@@]4(C)CC[C@@H]1[C@]32OO4 (stereo partly specified)
- IC50 (SK-OV-3): 15000 nM
- IC50 (PC-3): 20 nM
- IC50 (LOX IMVI): 55 nM
- IC50 (DU-145): 15000 nM
- IC50 (HL-60 [9]): 40 nM
- IC50 (K562): 150 nM
- IC50 (A498): 6500 nM
- IC50 (OVCAR-3): 200 nM
- IC50 (MCF7): 60 nM
- IC50 (M14): 15000 nM
- IC50 (CAKI-1): 13000 nM
- IC50 (T47D): 30 nM

Compound: C[C@@H]1CC[C@H]2[C@@H](C)C(=O)O[C@@H]3O[C@@]4(C)CC[C@@H]1[C@]32OO4 [ARTEMISININ]
- IC50 (Plasmodium falciparum [10]): 7.81 nM
- IC50 (BT-549 [11]): 40000 nM
- IC50 (Plasmodium falciparum [12]): 6.9 nM
- IC50 (Plasmodium falciparum [3]): 6.9 nM
- IC50 (HL-60 [13]): 40000 nM
- IC50 (CAKI-2): 40000 nM
- CC50 [6]: > 1690 nM
- IC50 (Plasmodium falciparum [14]): 6.6 nM

Compound: COc1cccc2c1C(=O)c1c(O)c3c(c(O)c1C2=O)C[C@@](O)(C(=O)CO)C[C@@H]3O[C@H]1C[C@H](N)[C@H](O)[C@H](C)O1 [DOXORUBICIN]
- IC50 (SK-OV-3): 9 nM
- IC50 (KB): 9 nM
- IC50 (ADR5000 cell line): 9 nM
- IC50 (Jurkat): 9 nM
- IC50 (SK-VLB): 9 nM
- IC50 (HL-60 [9]): 9 nM
- IC50 (A549): 9 nM
- IC50 (SK-MEL-2): 9 nM
- IC50 (BT-549 [15]): 9 nM
- IC50 (XF498): 9 nM
- CC50 [16]: 1290 nM
- IC50 (SK-MEL [17]): 9 nM
- IC50 (HCT-15): 9 nM
- IC50 (SK-MEL [18]): 170 nM
